# Measured values reported in patent publication US20030065039A1, “Biologically active 1,3-bis-aromatic-prop-2-en-1-ones, 1,3-bis-aromatic-propan-1-ones, and 1,3-bis-aromatic-prop-2-yn-1-ones” (Statens Serum Institute, priority 1997, published 2003).
# Like-named read-outs stand apart in the source and are kept apart here.
# Experiments:
# TNF-α [1] = assay: Intracellular TNF-α in human mononuclear cells (flow cytometry); format: cell-based; conditions: for % TNFα- producing cells: DMSO 10.1
# Procedure: [table] Incubation condition: Cells and mitogen added at the same time and the compound solution added immediately after in polypropylene tubes and incubated at 37° C. in CO2 incubator overnight. The following day the cells and the supernatant were harvested for TNF-α determination. Incubation condition: Cells and mitogen added at the same time and the compound solution added immediately after in polypropylene tubes and incubated at 37° C. in CO2 incubator overnight. The following day the cells and the supernatant were harvested for TNF-α determination.
# IFN-γ = IFN-γ producing human mononuclear cells (PMA+inomycin); format: cell-based; conditions: for inhibition of IFN-γ production: concentration of 12.5 μg/ml
# Procedure: Mitogens: LPS at a final conc. of 1 μg/ml for TNF-α and PMA+inomycin for IFN-γ.
# Incubation condition: Cells and mitogen added at the same time and the compound solution added immediately after in polypropylene tubes and incubated at 37° C. in CO2 incubator overnight. The following day the cells and the supernatant were harvested for TNF-α determination.
# [2] = Preliminary 14 days oral toxicity study in rats; format: in vivo; conditions: highest dose level 1000 mg/kg/day
# Procedure: A preliminary 14 days oral toxicity study in rats was carried out with 6 compounds. Observations included clinical signs, body weights, food intake, haematology, clinical chemistry and macroscopic pathology.
# Coxsackie virus B4 = assay: Antiviral activity in Vero cell cultures; format: cell-based; conditions: Vero cells; values given as fractions
# Procedure: (§1) IC50 values are determined by the virus plaque formation and/or the virus cytopathic assay using standard methods well-known in the art.
# (§2) In the following is reported the results from a Vero cell culture infected with different viruses. The cell culture used as well as the methods applied are well known to a person skilled in the art.
# Parainfluenza-3 Virus = assay: Antiviral activity in Vero cell cultures; format: cell-based; conditions: Vero cells; values given as fractions
# Procedure: as §1, §2
# Reovirus-1 = assay: Antiviral activity in Vero cell cultures; format: cell-based; conditions: Vero cells; values given as fractions
# Procedure: as §1, §2
# Simliki forest virus = assay: Antiviral activity in Vero cell cultures; format: cell-based; conditions: Vero cells; values given as fractions
# Procedure: as §1, §2
# Sindbis virus = assay: Antiviral activity in Vero cell cultures; format: cell-based; conditions: Vero cells; values given as fractions
# Procedure: as §1, §2
# IL-1ra = assay: Intracellular cytokine staining in stimulated human mononuclear cells; format: cell-based; conditions: 25 μg/ml compound
# Procedure: (§3) Therefore, experiments were performed to examine the effect of Licochalcone A and SBC-35ma on secretion of TNF-α from the stimulated cells. These experiments included detection of the cytokines in the cell lysate by ELISA and staining of the intracellular cytokines by using monoclonal antibodies against these cytokines and cytokine receptors.
# (§4) Table 3. Effect of Licochalcone A and SBC-35ma on the presence of intracellur cytokines in the human peripheral blood mononuclear cells stimulated either with a malarial exoantigen SPAG (diluted 1:12.5) or bacterial LPS (diluted 1:1000). The cells were preincubated with 25 μg/ml of each of the compounds for 2 hours and then incubated in the presence of antigens at 37° C. overnight. The cells were permeabilized and then fixed in paraformaldehyde Cytokine specific monoclonal antibodies were used for the detection of positive cells for each cytokine. Data are presented as percentages of positive cells for each cytokine.
# IL-1α = assay: as above; format: cell-based; conditions: 25 μg/ml compound, 2 hours preincubation
# Procedure: as §3, §4
# IL-1β = assay: as above; format: cell-based; conditions: 25 μg/ml compound
# Procedure: as §3, §4
# IL-2 = assay: as above; format: cell-based; conditions: 25 μg/ml compound
# Procedure: as §3, §4
# IL-4 = assay: as above; format: cell-based; conditions: 25 μg/ml compound
# Procedure: as §3, §4
# IL-6 = assay: as above; format: cell-based; conditions: 25 μg/ml compound
# Procedure: as §3, §4
# TNF-α [3] = assay: as above; format: cell-based; conditions: 25 μg/ml compound
# Procedure: as §3, §4
smiles,measurement,setting,value
"COc1cc(/C=C/C(=O)c2ccccc2F)cc(OC)c1 [PH135, 2′-fluoro-3,5-dimethoxychalcone]",% TNF-α producing cells,"TNF-α [1]; 1b Experiment 1, LPS 0.5 μg/ml, compound 6.25 μg/ml, DMSO 13.8",4.1%
same,% TNF-α producing cells,"TNF-α [1]; 1b Experiment 1, LPS 0.5 μg/ml, compound 12.5 μg/ml, DMSO 13.8",2.3%
same,% TNF-α producing cells,"TNF-α [1]; 1b Experiment 1, LPS 0.5 μg/ml, compound 25.0 μg/ml, DMSO 13.8",2.2%
same,% TNF-α producing cells,"TNF-α [1]; 1b Experiment 2, LPS 1 μg/ml, compound 3.125 μg/ml, DMSO 4.0",4.3%
same,% TNF-α producing cells,"TNF-α [1]; 1b Experiment 2, LPS 1 μg/ml, compound 6.25 μg/ml, DMSO 4.0",1.7%
same,% TNF-α producing cells,"TNF-α [1]; 1b Experiment 2, LPS 1 μg/ml, compound 12.5 μg/ml, DMSO 4.0",2.0%
same,% TNFα- producing cells,"TNF-α [1]; 1b Experiment 3, LPS 1 μg/ml, compound 3.125 μg/ml",1.7%
same,% TNFα- producing cells,"TNF-α [1]; 1b Experiment 3, LPS 1 μg/ml, compound 6.25 μg/ml",1.2%
same,% TNFα- producing cells,"TNF-α [1]; 1b Experiment 3, LPS 1 μg/ml, compound 12.5 μg/ml",1.0%
same,% TNF-α producing cells,"TNF-α [1]; 1b Experiment 4, LPS 1 μg/ml, compound 3.125 μg/ml, DMSO 14.6",3.5%
same,% TNF-α producing cells,"TNF-α [1]; 1b Experiment 4, LPS 1 μg/ml, compound 6.25 μg/ml, DMSO 14.6",2.1%
same,% TNF-α producing cells,"TNF-α [1]; 1b Experiment 4, LPS 1 μg/ml, compound 12.5 μg/ml, DMSO 14.6",1.8%
same,inhibition at 6.25 µg/mL,"TNF-α [1]; Homo sapiens, 1b Experiment 1, LPS 0.5 μg/ml, compound 6.25 μg/ml, read-out: % inhibition",70%
same,inhibition at 12.5 µg/mL,"TNF-α [1]; Homo sapiens, 1b Experiment 1, LPS 0.5 μg/ml, compound 12.5 μg/ml, read-out: % inhibition",83%
same,inhibition at 25 µg/mL,"TNF-α [1]; Homo sapiens, 1b Experiment 1, LPS 0.5 μg/ml, compound 25.0 μg/ml",84%
same,inhibition at 3.125 µg/mL,"TNF-α [1]; Homo sapiens, 1b Experiment 2, LPS 1 μg/ml, compound 3.125 μg/ml",0%
same,inhibition at 6.25 µg/mL,"TNF-α [1]; Homo sapiens, 1b Experiment 2, LPS 1 μg/ml, compound 6.25 μg/ml, read-out: Intracellular % inhibition",58%
same,inhibition at 12.5 µg/mL,"TNF-α [1]; Homo sapiens, 1b Experiment 2, LPS 1 μg/ml, compound 12.5 μg/ml, read-out: Intracellular % inhibition",50%
same,inhibition at 3.125 µg/mL,"TNF-α [1]; Homo sapiens, 1b Experiment 3, LPS 1 μg/ml, compound 3.125 μg/ml",83%
same,inhibition at 6.25 µg/mL,"TNF-α [1]; Homo sapiens, 1b Experiment 3, LPS 1 μg/ml, compound 6.25 μg/ml, read-out: Intracellular % inhibition",88%
same,inhibition at 12.5 µg/mL,"TNF-α [1]; Homo sapiens, 1b Experiment 3, LPS 1 μg/ml, compound 12.5 μg/ml, read-out: Intracellular % inhibition",90%
same,inhibition at 3.125 µg/mL,"TNF-α [1]; Homo sapiens, 1b Experiment 4, LPS 1 μg/ml, compound 3.125 μg/ml",76%
same,inhibition at 6.25 µg/mL,"TNF-α [1]; Homo sapiens, 1b Experiment 4, LPS 1 μg/ml, compound 6.25 μg/ml, read-out: Intracellular % inhibition",86%
same,inhibition at 12.5 µg/mL,"TNF-α [1]; Homo sapiens, 1b Experiment 4, LPS 1 μg/ml, compound 12.5 μg/ml, read-out: Intracellular % inhibition",88%
same,% IFN-γ producing cells,"IFN-γ; 1b Experiment 2, PMA+inomycin, 12.5 μg/ml, DMSO Control 16.4",14.2%
same,inhibition of IFN-γ production,IFN-γ; 1b Experiment 3,no inhibition
same,inhibition of IFN-γ production,IFN-γ; 1b Experiment 4,no inhibition
same,inhibition at 12.5 µg/mL,"IFN-γ; Homo sapiens, 1b Experiment 2, PMA+inomycin, 12.5 μg/ml",14%
"C=CCOc1ccc(C(=O)/C=C/c2cc(OC)cc(OC)c2)cc1 [SBC-35ma, 3,5-dimethoxy-4′-allyloxychalcone]",toxic effects,[2],No toxic effects
same,"Minimum inhibitory concentration, Coxsackie virus B4",Coxsackie virus B4,<1/100
same,"Minimum inhibitory concentration, Parainfluenza-3 Virus",Parainfluenza-3 Virus,<1/100
same,"Minimum inhibitory concentration, Reovirus-1",Reovirus-1,<1/100
same,"Minimum inhibitory concentration, Simliki forest virus",Simliki forest virus,<1/100
same,"Minimum inhibitory concentration, Sindbis virus",Sindbis virus,<1/100
same,percentages of positive cells for IL-1ra,"IL-1ra; LPS 1:1000, LPS alone 5.1",0.78%
same,percentages of positive cells for IL-1ra,"IL-1ra; SPAG 1:12.5, SPAG alone 6.6",0.14%
same,percentages of positive cells for IL-1α,"IL-1α; LPS 1:1000, LPS alone 13",0%
same,percentages of positive cells for IL-1α,"IL-1α; SPAG 1:12.5, SPAG alone 11",0%
same,percentages of positive cells for IL-1β,"IL-1β; LPS 1:1000, LPS alone 9.1",0%
same,percentages of positive cells for IL-1β,"IL-1β; SPAG 1:12.5, SPAG alone 13",0%
same,percentages of positive cells for IL-2,"IL-2; LPS 1:1000, LPS alone 2.0",0%
same,percentages of positive cells for IL-2,"IL-2; SPAG 1:12.5, SPAG alone 3.1",0%
same,percentages of positive cells for IL-4,"IL-4; LPS 1:1000, LPS alone 0",0%
same,percentages of positive cells for IL-4,"IL-4; SPAG 1:12.5, SPAG alone 0",0%
same,percentages of positive cells for IL-6,"IL-6; LPS 1:1000, LPS alone 4.3",0%
same,percentages of positive cells for IL-6,"IL-6; SPAG 1:12.5, SPAG alone 5.6",0%
same,percentages of positive cells for TNF-α,"TNF-α [3]; LPS 1:1000, LPS alone 0.30",0%
same,percentages of positive cells for TNF-α,"TNF-α [3]; SPAG 1:12.5, SPAG alone 0.96",0%
